Source: BindingDB's records for doi:10.1021/jm00367a006 (1984)

Biological target: dopamine D1 receptor (Rattus norvegicus)
Experiment: Effective concentration that gives maximal stimulation of cyclic AMP production over the concentration range tested.

Compound	EC50 [µM]
CN1Cc2c(N)cccc2C(c2ccc(O)c(O)c2)C1 (configuration not stated) [4-(8-Amino-2-methyl-1,2,3,4-tetrahydro-isoquinolin-4-yl)-benzene-1,2-diol]	2.88
CN1Cc2c(N)cccc2[C@H](c2ccc(O)c(O)c2)C1	1.87
